Entries after “also recorded” stand apart in the source; their conditions may differ.
Columns and labels:
4T1 tumors = assay: 4T1 tumor progression in syngeneic BALB/c mice; type: in vivo; conditions: SERD128 50 mg/kg oral gavage, fulvestrant 5 mg/mouse subcutaneous once a week, anti-PD-L1 100 μg every third day, 10-12 days
Method: Ovariec-tomized 6-wk-old female BALC/c mice supplemented with E2 pellets (0.36 mg/60 day release pellet) were implanted SC with 2.5×10^5 4T1 cells. After tumors reached approx. 200 mm3, mice were randomized and treated with control vehicle (CON), 100 μg of anti-PD-L1 (antibody clone 10F.9G2, BioXCell) Q3 days (PD-L1), 50 mg/kg SERD128 by oral gavage (SERD128) or combined antibody+SERD (PD-L1+SERD128). Tumors were measured Q3 days, with tumor volume calculated as V=(W(2)×L)/2), with mean+SE (*P<0.05, **P<0.01 vs CON).
FIGS. 23A-23C show estrogen effects on ERα negative tumor growth in vitro and in vivo. […] Female 6-wk-old BALB/c mice, either ovariectomized (ovx) or sham-operated (intact), were inoculated s.c. with 2×10^5 4T1 TNBC cells. Tumor growth was then assessed every 3 days, with tumor volume calculated as V=(l×w×w)/2. ****P≤0.0001. […] 4T1 cells were grown in the presence (+E2) or absence (−E2) of estradiol-17β and increasing concentrations of SERD128 at 10 nM (128-10), 100 nM (128-100) or 1000 nM (128-1000). Cell proliferation was assessed using the Incucyte S3 Live-Cell Analysis system with pictures obtained every 4-6 hours. […] Ovariectomized 6-week-old female syngeneic BALB/c mice were primed with estradiol-17β slow-release pellets prior to tumor cell inoculation. After three days, 4T1 cells were injected in the 4th mammary fat pad (2×10^5 cells). After tumors reached ˜200 mm^3 mice were randomized and treated with control vehicle (CON), […] of anti-PD-L1 antibody every 3rd day (PD-L1 Ab), 50 mg/kg SERD128 via oral gavage (SERD128), and combinations of antibody and SERD128 (SERD128+PD-L1 Ab). Tumors were measured every 3 days, and tumor volume was calculated as V=(W(2)×L)/2). **P<0,01, ****P<0.0001 as compared to control group. n=11-12.
In further studies to determine the effects of antiestrogen treatment alone or in combination with anti-PD-L1 antibody on murine tumor progression in vivo, ovariectomized 6-week-old female syngeneic BALB/c mice were used (Jackson Laboratory). […] Tumors were measured every 3-4 days, and tumor volume was calculated as above. […]

[1] = test system: myeloid-derived suppressor cells (MDSC); assay: Expansion of human MDSC from bone marrow of BC patients, flow cytometry; type: cell-based; conditions: 1 μM in normal medium with GM-CSF and IL-6, 5-6 days
Excerpt: Bone Marrow cells from three breast cancer patients were purified by established methods including red blood cell lysis and Ficoll gradients (1-3,5, 5-7) and then cultured in the presence of IL-6 and GM-CSF in either estrogen-free medium (EFM), normal medium with control vehicle (NM) (which contains estrogens), normal medium with 1-μM fulvestrant (NM+FULV) or normal medium with 1-μM S128 (NM+S128). After 5 days, myeloid-derived cell populations were then identified by following the gating strategy of Ruffell et al. (2) as modified by Svoronos et al. (1). A) Percentage of total MDSC within CD45^+ population.
Total number of human MDSC derived from bone marrow (BM) of three of three BC patients (P<0.05). Cells were incubated in the presence of GM-CSF and IL-6 for 6 days in either regular RPMI medium+15% FBS (NM) (contains estrogens) or in phenol red-free medium with 15% charcoal coated-dextran treated FBS (EFM)(estrogen-depleted) with or without the addition of 100 nM estradiol-17β (EFM+E2). Normal cell culture medium (NM) drives E2-dependent signaling due to the presence of various estrogens in FBS as well as the estrogenic properties of phenol red. These effects were inhibited by the SERDs fulvestrant (FULV) and S128 at 1 μM
FIGS. 22A-22B show expansion of MDSCs is dependent on estrogen signaling and reversed by antiestrogens. […]
Human myeloid-derived suppressor cells were expanded from bone marrow (BM) specimens of BC patients after standard Ficoll gradient purification and red blood cell lysis. […] After 6 days of culture, cells were harvested, stained with a 14 antibody panel including anti-phospho-STAT3 (pSTAT3) and analyzed by flow cytometry with an LSRII with a 5 lasers (UV, violet, blue, green-yellow and red). […]

Row | SMILES | 4T1 tumor progression (tumor volume) (4T1 tumors) | total MDSC numbers (expansion of MDSC) [1] | 4T1 tumor progression (tumor volume) (4T1 tumors; 50 mg/kg) | 4T1 tumor progression (tumor volume) (4T1 tumors; listed as S128) | total MDSC numbers (expansion of MDSC) ([1]; listed as S128)
1 | C[C@]12CC[C@@H]3c4ccc(O)cc4C[C@@H](CCCCCCCCC[S+]([O-])CCCC(F)(F)C(F)(F)F)[C@H]3[C@@H]1CC[C@@H]2O (stereo partly drawn) [fulvestrant, reference compound] | effective in inhibition of 4T1 tumor growth in vivo | substantially decreased; also recorded: significantly inhibited; also recorded: block E2-induced expansion of MDSCs |  |  | 
2 | C[C@]12C[C@H](Oc3ccc(N)c(C(F)(F)F)c3)[C@@H]3c4ccc(O)cc4CC[C@H]3[C@@H]1CC[C@@H]2O [SERD128, (8S,9S,11S,13S,14S,17S)-11-(4-Amino-3-(trifluoromethyl)phenoxy)-13-methyl-7,8,9,11,12,13,14,15,16,17-decahydro-6H-cyclopenta[a]phenanthrene-3,17-diol] |  | significantly inhibited; also recorded: inhibits expansion and activation; also recorded: block E2-induced expansion of MDSCs; also recorded: exceeds that of fulvestrant at equivalent doses | inhibits breast cancer growth in vivo; also recorded: effective in inhibition of 4T1 tumor growth in vivo; also recorded: significant suppression of 4T1 tumor progression in vivo | elicits inhibition of 4T1 TNBC progression in vivo | substantially decreased; also recorded: inhibited; also recorded: inhibits E2-induced expansion of MDSC
